This assay concerns the target TRPV3 (mTRPV3) (Mus musculus, UniProt Q8K424). Description: cell-based.

Chain of TRPV3 (mTRPV3) (Q8K424 whole entry): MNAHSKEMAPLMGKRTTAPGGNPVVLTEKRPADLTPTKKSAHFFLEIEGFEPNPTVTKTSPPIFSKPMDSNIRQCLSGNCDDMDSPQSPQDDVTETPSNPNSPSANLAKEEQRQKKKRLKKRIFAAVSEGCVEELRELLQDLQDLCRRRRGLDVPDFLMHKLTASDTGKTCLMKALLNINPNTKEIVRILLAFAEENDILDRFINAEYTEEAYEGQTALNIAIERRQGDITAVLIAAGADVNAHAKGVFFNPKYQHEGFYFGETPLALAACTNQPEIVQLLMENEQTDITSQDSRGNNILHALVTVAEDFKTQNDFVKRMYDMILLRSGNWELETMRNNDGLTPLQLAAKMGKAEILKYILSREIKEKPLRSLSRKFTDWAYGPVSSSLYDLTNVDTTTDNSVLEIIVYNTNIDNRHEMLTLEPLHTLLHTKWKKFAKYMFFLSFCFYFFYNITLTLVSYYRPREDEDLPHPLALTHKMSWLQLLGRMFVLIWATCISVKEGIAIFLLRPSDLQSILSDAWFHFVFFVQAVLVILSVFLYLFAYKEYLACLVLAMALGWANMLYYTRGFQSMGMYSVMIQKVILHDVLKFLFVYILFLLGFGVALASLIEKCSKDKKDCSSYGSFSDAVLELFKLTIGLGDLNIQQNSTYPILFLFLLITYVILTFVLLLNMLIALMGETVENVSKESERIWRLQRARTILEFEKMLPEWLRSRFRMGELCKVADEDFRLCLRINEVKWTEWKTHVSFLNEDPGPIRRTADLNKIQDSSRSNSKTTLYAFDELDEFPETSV

As a reminder, the EC50 is the concentration needed to bring the measured effect to its halfway point. In the case of `NCCOB(c1ccccc1)c1ccccc1` [2-APB], the EC50 is 57.4 ± 3.2 µM.
